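Method: 48-hour compound exposure of cells in 96-well plates, five concentrations, linear interpolation of endpoints. Here, GI50 denotes the concentration required for 50% inhibition of growth.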 Active and inactive are the calls of the source. Cut-off read from the data, not from the text of the source: active = GI50 up to about 1.1 µM and inactive = higher.
Columns and labels:
Assay in all cases: NCI-60 cell line screen, 48 h
786-0 = tested on: 786-0
A498 = tested on: A498
A549 = tested on: A549
ACHN = tested on: ACHN
BT-549 = tested on: BT-549
CAKI-1 = tested on: CAKI-1
CCRF-CEM = tested on: CCRF-CEM
COLO 205 = tested on: COLO 205
DU-145 = tested on: DU-145
EKVX = tested on: EKVX
HCC 2998 = tested on: HCC 2998
HCT-116 = tested on: HCT-116
HCT-15 = tested on: HCT-15
HL-60 = tested on: HL-60
HOP-62 = tested on: HOP-62
HOP-92 = tested on: HOP-92
HT-29 = tested on: HT-29
Hs-578T = tested on: Hs-578T
IGROV-1 = tested on: IGROV-1
K562 = tested on: K562
KM12 = tested on: KM12
LOX IMVI = tested on: LOX IMVI
M14 = tested on: M14
MCF7 = tested on: MCF7
MDA-MB-231 = tested on: MDA-MB-231
MDA-MB-435 = tested on: MDA-MB-435
MDA-N = tested on: MDA-N
MOLT-4 = tested on: MOLT-4
Malme-3M = tested on: Malme-3M
NCI-H226 = tested on: NCI-H226
NCI-H23 = tested on: NCI-H23
NCI-H460 = tested on: NCI-H460
NCI-H522 = tested on: NCI-H522
NCI/ADR-RES = tested on: NCI/ADR-RES
OVCAR-3 = tested on: OVCAR-3
OVCAR-4 = tested on: OVCAR-4
OVCAR-5 = tested on: OVCAR-5
OVCAR-8 = tested on: OVCAR-8
PC-3 = tested on: PC-3
RPMI-8226 = tested on: RPMI-8226
RXF 393 = tested on: RXF 393
SF-268 = tested on: SF-268
SF-295 = tested on: SF-295
SF-539 = tested on: SF-539
SK-MEL-28 = tested on: SK-MEL-28
SK-MEL-2 = tested on: SK-MEL-2
SK-MEL-5 = tested on: SK-MEL-5
SK-OV-3 = tested on: SK-OV-3
SN12C = tested on: SN12C
SNB-19 = tested on: SNB-19
SNB-75 = tested on: SNB-75
SR = tested on: SR
SW-620 = tested on: SW-620
T47D = tested on: T47D
TK-10 = tested on: TK-10
U-251 = tested on: U-251
UACC-257 = tested on: UACC-257
UACC-62 = tested on: UACC-62
UO-31 = tested on: UO-31

## CCc1nc(N)nc(N)c1-c1ccc2nn(-c3ccccc3)[n+]([O-])c2c1
786-0
  GI50: 1.16 µM (inactive)
A498
  GI50: 8.43 µM (inactive)
A549
  GI50: 0.378 µM (active)
ACHN
  GI50: 1.76 µM (inactive)
BT-549
  GI50: 11.9 µM (inactive)
CAKI-1
  GI50: 4.47 µM (inactive)
CCRF-CEM
  GI50: 1.6 µM (inactive)
COLO 205
  GI50: 8.22 µM (inactive)
DU-145
  GI50: 6.14 µM (inactive)
EKVX
  GI50: 7.96 µM (inactive)
HCC 2998
  GI50: 4.59 µM (inactive)
HCT-116
  GI50: 0.396 µM (active)
HCT-15
  GI50: 0.697 µM
HL-60
  GI50: 0.902 µM (active)
HOP-62
  GI50: 5.82 µM (inactive)
HOP-92
  GI50: 8.91 µM (inactive)
HT-29
  GI50: 1.26 µM (inactive)
Hs-578T
  GI50: 17.9 µM (inactive)
IGROV-1
  GI50: 1.67 µM (inactive)
K562
  GI50: 0.203 µM (active)
KM12
  GI50: 5.45 µM (inactive)
LOX IMVI
  GI50: 1.01 µM (active)
M14
  GI50: 1.33 µM (inactive)
MCF7
  GI50: 4.17 µM (inactive)
MDA-MB-231
  GI50: 11.7 µM (inactive)
MDA-MB-435
  GI50: 1.27 µM (inactive)
MDA-N
  GI50: 0.895 µM (active)
MOLT-4
  GI50: 2.84 µM (inactive)
Malme-3M
  GI50: 10.7 µM (inactive)
NCI-H226
  GI50: 14.5 µM (inactive)
NCI-H23
  GI50: 1.87 µM (inactive)
NCI-H460
  GI50: 0.361 µM (active)
NCI-H522
  GI50: 2.83 µM (inactive)
NCI/ADR-RES
  GI50: 3.13 µM (inactive)
OVCAR-3
  GI50: 7.62 µM (inactive)
OVCAR-4
  GI50: 11.9 µM (inactive)
OVCAR-5
  GI50: 14 µM (inactive)
OVCAR-8
  GI50: 2.42 µM (inactive)
PC-3
  GI50: 1.23 µM (inactive)
RPMI-8226
  GI50: 8.24 µM (inactive)
RXF 393
  GI50: 10.3 µM (inactive)
SF-268
  GI50: 5.12 µM (inactive)
SF-295
  GI50: 2.4 µM (inactive)
SF-539
  GI50: 3.7 µM (inactive)
SK-MEL-28
  GI50: 11.8 µM (inactive)
SK-MEL-2
  GI50: 14.3 µM (inactive)
SK-MEL-5
  GI50: 2.61 µM (inactive)
SK-OV-3
  GI50: 39.1 µM (inactive)
SN12C
  GI50: 9.38 µM (inactive)
SNB-19
  GI50: 16.3 µM (inactive)
SNB-75
  GI50: 21.3 µM (inactive)
SR
  GI50: 1.35 µM (inactive)
SW-620
  GI50: 0.869 µM (active)
T47D
  GI50: 13.1 µM (inactive)
TK-10
  GI50: 15 µM (inactive)
U-251
  GI50: 2.58 µM (inactive)
UACC-257
  GI50: 10.6 µM (inactive)
UACC-62
  GI50: 1.02 µM (active)
UO-31
  GI50: 7.13 µM (inactive)

## O=C1C(Br)=Cc2c(Cl)sc(Cl)c21
786-0
  GI50: 1.77 µM (inactive)
A498
  GI50: 23.9 µM (inactive)
A549
  GI50: 24.6 µM (inactive)
ACHN
  GI50: 2.91 µM (inactive)
BT-549
  GI50: 22.2 µM (inactive)
CAKI-1
  GI50: 3.05 µM (inactive)
CCRF-CEM
  GI50: 0.232 µM (active)
COLO 205
  GI50: 6.76 µM (inactive)
DU-145
  GI50: 5.42 µM (inactive)
EKVX
  GI50: 7.24 µM (inactive)
HCC 2998
  GI50: 2.37 µM (inactive)
HCT-116
  GI50: 2.03 µM (inactive)
HCT-15
  GI50: 3.69 µM
HL-60
  GI50: 1.87 µM (inactive)
HOP-62
  GI50: 7.45 µM (inactive)
HOP-92
  GI50: 2.84 µM (inactive)
HT-29
  GI50: 4.58 µM (inactive)
Hs-578T
  GI50: 21.8 µM (inactive)
IGROV-1
  GI50: 2.59 µM (inactive)
K562
  GI50: 1.07 µM (active)
KM12
  GI50: 6.5 µM (inactive)
LOX IMVI
  GI50: 2.36 µM (inactive)
M14
  GI50: 7.05 µM (inactive)
MCF7
  GI50: 2.44 µM (inactive)
MDA-MB-231
  GI50: 3.13 µM (inactive)
MDA-MB-435
  GI50: 2.11 µM (inactive)
MDA-N
  GI50: 2.44 µM (inactive)
MOLT-4
  GI50: 0.515 µM (active)
Malme-3M
  GI50: 8.67 µM (inactive)
NCI-H226
  GI50: > 100 µM (inactive)
NCI-H23
  GI50: 8.85 µM (inactive)
NCI-H460
  GI50: 18.3 µM (inactive)
NCI-H522
  GI50: 5.16 µM (inactive)
NCI/ADR-RES
  GI50: 8.65 µM (inactive)
OVCAR-3
  GI50: 2.67 µM (inactive)
OVCAR-4
  GI50: 2.74 µM (inactive)
OVCAR-5
  GI50: 13.3 µM (inactive)
OVCAR-8
  GI50: 3.24 µM (inactive)
PC-3
  GI50: 2.55 µM (inactive)
RPMI-8226
  GI50: 0.668 µM (active)
RXF 393
  GI50: 2.46 µM (inactive)
SF-268
  GI50: 3.4 µM (inactive)
SF-295
  GI50: 24 µM (inactive)
SF-539
  GI50: 4.24 µM (inactive)
SK-MEL-28
  GI50: 11.6 µM (inactive)
SK-MEL-2
  GI50: 13.6 µM (inactive)
SK-MEL-5
  GI50: 19.5 µM (inactive)
SK-OV-3
  GI50: 15.5 µM (inactive)
SN12C
  GI50: 5.51 µM (inactive)
SNB-19
  GI50: 18.9 µM (inactive)
SNB-75
  GI50: 13.3 µM (inactive)
SR
  GI50: 2.15 µM (inactive)
SW-620
  GI50: 2.19 µM (inactive)
T47D
  GI50: 2.42 µM (inactive)
TK-10
  GI50: 2.17 µM (inactive)
U-251
  GI50: 2.59 µM (inactive)
UACC-257
  GI50: 5.45 µM (inactive)
UACC-62
  GI50: 7.91 µM (inactive)
UO-31
  GI50: 2.82 µM (inactive)

Source: ChEMBL document CHEMBL1201862, “PubChem BioAssay data set” (2004)
